Test results as given in the Deep4Chem optical property database.

Experiment: solvent given as SMILES

`C(=C\c1nc2ccccc2s1)/c1ccccc1` gave a fluorescence lifetime (in C1CCCCC1) of 0.17 ns.
`CCN(CC)c1ccc2c(c1)oc(=O)c1c(C)nc3c(cnn3-c3ccccc3)c12` gave a fluorescence lifetime (in ClCCl) of 2.72 ns.
For `c1ccc2c(c1)[nH]c1c3ccccc3[nH]c21`, the fluorescence lifetime (in CCCO) was 5.5 ns.
Molecule `COc1ccc(C(=Cc2ccc(C=O)cc2)c2ccc(OC)cc2)cc1` has a fluorescence lifetime (in C1CCOC1) of 6.7 ns.
Molecule `CCCCCCN1C(=O)c2cccc3cc(/N=C\c4c[nH]c5c4ccc4ccccc45)cc(c23)C1=O` has a fluorescence lifetime (in ClC(Cl)Cl) of 11.6 ns.
`CN(C)c1ccc(-c2cc(-c3ccc4ccccc4c3)nc(-c3ccccc3)n2)cc1` gave a fluorescence lifetime (in C1CCCCC1) of 2.9 ns, a fluorescence lifetime (in CS(C)=O) of 1.6 ns and a fluorescence lifetime (in ClC(Cl)Cl) of 2.4 ns.
In the case of `CCCCN1C(=O)c2cc(Br)c3c4c(Br)cc5c6c(cc(Br)c(c7c(Br)cc(c2c37)C1=O)c64)C(=O)N(CCCC)C5=O`, the fluorescence lifetime (in ClC(Cl)Cl) is reported as 2.9 ns.
Molecule `Cc1ccc(-c2ccc(/C=C/c3ccccc3)cn2)nc1` has a fluorescence lifetime (in CC#N) of 1.06 ns.
For `CN(C)c1ccc(/C=C2\CC/C(=C\c3ccc(N(C)C)cc3)C2=O)cc1`, the fluorescence lifetime (in C1CCOC1) was 0.6 ns, the fluorescence lifetime (in C1COCCO1) was 0.5 ns and the fluorescence lifetime (in CC#N) was 0.54 ns. It also gave a fluorescence lifetime (in CC(C)=O) of 0.74 ns, a fluorescence lifetime (in CC(C)O) of 0.68 ns and a fluorescence lifetime (in CCO) of 0.34 ns. It also gave a fluorescence lifetime (in CCOC(C)=O) of 0.59 ns, a fluorescence lifetime (in CN(C)C=O) of 0.92 ns and a fluorescence lifetime (in CO) of 0.29 ns. It also gave a fluorescence lifetime (in CS(C)=O) of 0.85 ns, a fluorescence lifetime (in Cc1ccccc1) of 0.48 ns and a fluorescence lifetime (in ClC(Cl)(Cl)Cl) of 0.37 ns. It also gave a fluorescence lifetime (in ClC(Cl)Cl) of 0.57 ns, a fluorescence lifetime (in ClCCl) of 0.77 ns and a fluorescence lifetime (in S=C=S) of 0.51 ns.
`N#Cc1ccc(C2=Cc3ccccc3P2(=O)c2ccccc2)cc1` (configuration not stated) gave a fluorescence lifetime (in ClCCl) of 4.8 ns.
Work on `COc1ccc(C2=Cc3c4ccccc4c4ccccc4[n+]3[B-](F)(F)O2)cc1` yielded a fluorescence lifetime (in ClC(Cl)Cl) of 1.58 ns.
`CCCCCCCCCC[n+]1cc2ccc3c[n+](CCCCCCCCCC)cc4ccc(c1)c2c34` gave a fluorescence lifetime (in CC#N) of 9.5 ns.
Molecule `Nc1ccc2c(c1)-c1ccccc1C2=O` has a fluorescence lifetime (in CC#N) of 5.9 ns and a fluorescence lifetime (in c1ccccc1) of 11 ns.
With `CC1(C)c2ccccc2N(c2ccc(C(=O)c3cc(C(=O)c4ccc(N5c6ccccc6C(C)(C)c6ccccc65)cc4)cc(C(=O)c4ccc(N5c6ccccc6C(C)(C)c6ccccc65)cc4)c3)cc2)c2ccccc21` the fluorescence lifetime (in Cc1ccccc1) was 16.7 ns and the fluorescence lifetime (in c1ccc2c(c1)c1ccccc1n2-c1ccc(-c2ccc(-n3c4ccccc4c4ccccc43)cc2)cc1) was 25.8 ns.
For `COc1ccc2c(=O)c3c([nH]c2c1)-c1cc(Cl)ccc1NC3(C)C`, the fluorescence lifetime (in C1CCOC1) was 8.91 ns, the fluorescence lifetime (in CC#N) was 9.32 ns and the fluorescence lifetime (in CCCCO) was 9.93 ns. It also gave a fluorescence lifetime (in CCCO) of 9.91 ns, a fluorescence lifetime (in CCO) of 9.44 ns and a fluorescence lifetime (in CCOC(C)=O) of 8.48 ns. The fluorescence lifetime (in CN(C)C=O) was 10.4 ns, the fluorescence lifetime (in CO) was 9.17 ns and the fluorescence lifetime (in CS(C)=O) was 11.2 ns. It also gave a fluorescence lifetime (in Cc1ccccc1) of 7.94 ns, a fluorescence lifetime (in ClC(Cl)(Cl)Cl) of 5.41 ns and a fluorescence lifetime (in ClCCl) of 9.85 ns. The fluorescence lifetime (in O) was 6.93 ns and the fluorescence lifetime (in c1ccccc1) was 8.01 ns.
Molecule `COC(=O)C(Cc1ccc2oc(-c3ccc(-n4c5ccccc5c5ccccc54)cc3)nc2c1)NC(=O)OC(C)(C)C` (configuration not stated) has a fluorescence lifetime (in C1CCCCC1) of 1.37 ns, a fluorescence lifetime (in C1CCOC1) of 3.32 ns and a fluorescence lifetime (in C1COCCO1) of 2.49 ns. The fluorescence lifetime (in CC1CCCO1) was 2.78 ns, the fluorescence lifetime (in CC#N) was 5.02 ns and the fluorescence lifetime (in CC(C)(C)O) was 4.03 ns. For the same molecule, the fluorescence lifetime (in CC(C)=O) was 4.28 ns, the fluorescence lifetime (in CC(C)CC(C)(C)C) was 1.3 ns and the fluorescence lifetime (in CC(C)O) was 4.49 ns. The fluorescence lifetime (in CC(O)CO) was 5.74 ns, the fluorescence lifetime (in CCCCCCCO) was 4 ns and the fluorescence lifetime (in CCCCCCO) was 4.11 ns. For the same molecule, the fluorescence lifetime (in CCCCCO) was 3.36 ns, the fluorescence lifetime (in CCCCO) was 4.52 ns and the fluorescence lifetime (in CCO) was 5.3 ns. It also gave a fluorescence lifetime (in CCOC(C)=O) of 3.08 ns, a fluorescence lifetime (in CCOCC) of 2.8 ns and a fluorescence lifetime (in CN(C)C=O) of 4.97 ns. It also gave a fluorescence lifetime (in CO) of 5.34 ns, a fluorescence lifetime (in CS(C)=O) of 5.45 ns and a fluorescence lifetime (in Cc1ccccc1) of 1.84 ns. For the same molecule, the fluorescence lifetime (in OCCO) was 6.17 ns.
Molecule `COc1nc(Nc2ccc3c4c(cccc24)C(=O)c2ccccc2-3)nc(OC)n1` has a fluorescence lifetime (in CC#N) of 9.2 ns, a fluorescence lifetime (in CC(C)=O) of 8.5 ns and a fluorescence lifetime (in CC(C)O) of 7.7 ns. It also gave a fluorescence lifetime (in CCCCOCCCC) of 3.7 ns, a fluorescence lifetime (in CCOC(C)=O) of 7.3 ns and a fluorescence lifetime (in CCOCC) of 4.9 ns. For the same molecule, the fluorescence lifetime (in CO) was 7.4 ns, the fluorescence lifetime (in Cc1ccccc1) was 5.6 ns and the fluorescence lifetime (in Clc1ccccc1) was 7.4 ns. For the same molecule, the fluorescence lifetime (in N#Cc1ccccc1) was 7 ns and the fluorescence lifetime (in O=C1CCCCC1) was 7.4 ns.
With `CCCCCCC(CCCCCC)N1C(=O)c2cccc3c(-c4ccc(OC)c5ccccc45)ccc(c23)C1=O` the fluorescence lifetime (in CCCCCC) was 1.7 ns, the fluorescence lifetime (in CCCCCCCCCCCCCC) was 1.83 ns and the fluorescence lifetime (in CCCCCCCCCCCO) was 4.85 ns. The fluorescence lifetime (in CCCCO) was 1.8 ns, the fluorescence lifetime (in CN(C)C=O) was 3.85 ns and the fluorescence lifetime (in Cc1ccccc1) was 1.53 ns. It also gave a fluorescence lifetime (in ClC(Cl)Cl) of 4.07 ns.
Molecule `CC(C)c1cc(C(C)C)c(-c2nnc(-c3ccc(-n4c5ccccc5c5ccccc54)cc3)o2)c(C(C)C)c1` has a fluorescence lifetime (in CCO) of 2.19 ns.
